These results are taken from patent publication US10092493B2, “Composition of skin external application for anti-aging” (AMOREPACIFIC CORPORATION, priority 2005, dated 2018).

The structures appear in SMILES notation.

The target of experiment [1] is T1, PPAR-α (Peroxisome Proliferator Activated Receptor-alpha) (Homo sapiens, UniProt Q07869).
T1 construct: expressed in transfected cells; host or cells: CV-1 monkey kidney epithelial cells (ATCC CCL 70)
T1 sequence (Q07869 1-468): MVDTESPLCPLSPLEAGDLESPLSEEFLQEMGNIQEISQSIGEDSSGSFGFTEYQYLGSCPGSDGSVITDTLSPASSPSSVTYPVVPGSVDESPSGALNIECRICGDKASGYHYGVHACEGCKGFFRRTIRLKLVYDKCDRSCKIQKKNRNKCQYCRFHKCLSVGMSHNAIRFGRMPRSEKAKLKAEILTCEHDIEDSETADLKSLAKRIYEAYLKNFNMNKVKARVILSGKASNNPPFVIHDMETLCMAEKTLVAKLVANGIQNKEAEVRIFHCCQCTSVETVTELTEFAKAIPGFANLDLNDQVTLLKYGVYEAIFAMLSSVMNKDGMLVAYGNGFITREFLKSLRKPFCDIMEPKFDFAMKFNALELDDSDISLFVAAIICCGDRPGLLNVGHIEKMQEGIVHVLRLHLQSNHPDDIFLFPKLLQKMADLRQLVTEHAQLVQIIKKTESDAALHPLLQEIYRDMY
In words: Activation of PPAR-α, luciferase reporter in CV-1 cells. The experiment is classed as cell-based. The following applies: 24 hours, negative control and non-treated group = 1.0. How it is done:
Monkey kidney epithelial cell line CV-1 (ATCC CCL 70) was subcultured in a DMEM medium containing 10% fetal bovine serum treated with charcol/dextran, which was a phenol red-free medium to remove the effect by estrogen of phenol red.
CV-1 cells were distributed in a 24-well plate type incubator at a concentration of 5×10^4. After 24 hours cultivation, the 3 different plasmids were transient transfected. After 24 hours cultivation, the plate was washed with 1×PBS (Phosphate Buffered Saline) and treated with ligand candidates at various concentrations. After 24 hours cultivation, the plate was washed with 1×PBS and the cells were lyzed with 1×PLB (Passive Lysis Buffer) and measured for luciferase activity using Dual-Luciferase® Reporter Assay System kit.
(In general: A reporter such as luciferase makes a cellular process visible.)

Experiment [2] relates to Tumor Necrosis Factor alpha (TNF-α). The experiment is described as follows: Inhibition of TNF-α biosynthesis after UV irradiation (ELISA). The experiment is classed as cell-based. The following applies: human keratinocytes, UV-B 30 mJ/cm^2, 10 μM (10 ppm of extract), 6 to 24 hours; UV control = 100. How it is done: Human keratinocytes were cultured in a 12-well plate type incubator at a concentration of 10^4. The plate was irradiated by UV-B at 30 mJ/cm^2. The media were exchanged with new medium containing 10 μM of each test substance (10 ppm of extract). After 6 to 24 hours of cultivation, the cells were harvested and subjected to ELISA (Pharmingen 555212) to determine the amount of produced tumor necrosis factor α (TNF-α). As the positive control, Wy-14,643 was used.
(In an ELISA, binding on a coated surface is turned into a signal by an enzyme label.)

Experiment [3] has as its system Type I Collagenase (MMP-1). The experiment is described as follows: Inhibition of type I collagenase (MMP-1) biosynthesis after UV-A irradiation, test substances (ELISA). The following applies: new born human fibroblasts, UV-A 15 J/cm^2, 10 μM or 10 ppm, UV negative control = 100; for Type I collagenase biosynthesis (%), UV-A + TNF-α treated group: plus TNF-α 10 ng/ml. The experiment is classed as cell-based. How it is done:
To describe the experiment method in detail, human fibroblasts isolated from the skin of a new born baby were cultured in a 48-well plate type incubator at a concentration of 10^4. After 24 hours, the plate was irradiated by UV-A at 15 J/cm^2. […] At the second day of cultivation, the supernatants were harvested and subjected to ELISA (AP biotech RPN2610) to determine the amount of produced type I collagenase. As the positive control, Wy-14,643 and retinoic acid (RA) were used.

Another experiment deals with pro-collagen. In words: Biosynthesis of collagen (pro-collagen ELISA) in fibroblasts. The following applies: 48 hours, un-treated control = 100. The experiment is classed as cell-based, Human. How it is done:
Human fibroblasts were cultured in a 48-well plate type incubator at a concentration of 10^4. The media were exchanged with new medium (theanine: 1, 10, 100 um) containing each test substance of Table 7 at a concentration of 0.001 μM, 0.01 μM, 0.1 μM, 0.5 μM and 2 μM. After 48 hours of cultivation, each supernatant was harvested and subjected to ELISA (Takara MK101) to measure the amount of produced pro-collagen.
Also, in order to examine the synergic effect of theanine on collagen biosynthesis, theanine 10 μM was added to catechin at different 4 concentrations and the result is shown in Table 8.

As to `Oc1cc(O)c2c(c1)O[C@H](c1ccc(O)c(O)c1)[C@@H](O)C2` [(+) C, (+)catechin], the PPAR-α activity in experiment [1] (10 μM) came out at 1.5. For the same compound, the PPAR-α activity in experiment [1] (100 μM) worked out at 1.4. In addition, in experiment [2], the “TNF-α biosynthesis (%)” value was found to be 40%. In experiment [3], the “Type I collagenase biosynthesis (%), UV-A + TNF-α treated group” value is on record as 86% and the “Type I collagenase biosynthesis (%), UV-A irradiated group” value turned out to be 45%.

As for `CC1=C(/C=C/C(C)=C/C=C/C(C)=C/C(=O)O)C(C)(C)CCC1` [RA, retinoic acid, reference compound], in experiment [3], the “Type I collagenase biosynthesis (%), UV-A + TNF-α treated group” value is on record as 86% and the “Type I collagenase biosynthesis (%), UV-A irradiated group” value is listed as 48%.

Turning to `Oc1cc(O)c2c(c1)OC(c1ccc(O)c(O)c1)C(O)C2` (single isomer, unassigned; (-)) [(−) C, (−)catechin], the PPAR-α activity in experiment [1] (10 μM) is 1.4; in experiment [1] (100 μM), 1.2.

`Cc1cccc(Nc2cc(Cl)nc(SCC(=O)O)n2)c1C` [Wy14643, Wy-14,643, reference compound]: the PPAR-α activity in experiment [1] (0.1 μM) came out at 1.5; in experiment [1] (1 μM), 2.6; in experiment [1] (10 μM), 3.8. In addition, the “TNF-α biosynthesis (%)” value in experiment [2] stood at 30%. In addition, the “Type I collagenase biosynthesis (%), UV-A + TNF-α treated group” value in experiment [3] is on record as 92%. The “Type I collagenase biosynthesis (%), UV-A irradiated group” value in experiment [3] turned out to be 60%.

On to `O=C(O[C@@H]1Cc2c(O)cc(O)cc2O[C@@H]1c1ccc(O)c(O)c1)c1cc(O)c(O)c(O)c1` [(−) ECG, epicatechin gallate], for which the Collagen biosynthesis turned out to be 100.5 in the experiment with pro-collagen (0.001 μM); 181.7 with pro-collagen (0.01 μM); 165.3 in the experiment on pro-collagen (0.1 μM); 124.5 with pro-collagen (0.5 μM); 77.8 in the experiment on pro-collagen (2 μM). Also, the PPAR-α activity in experiment [1] (10 μM) is reported as 1.1; in experiment [1] (100 μM), 1.6. In experiment [2], the “TNF-α biosynthesis (%)” value was 32%. In addition, the “Type I collagenase biosynthesis (%), UV-A + TNF-α treated group” value in experiment [3] is 87%. The “Type I collagenase biosynthesis (%), UV-A irradiated group” value in experiment [3] amounted to 45%.

As for `Cn1c(=O)c2c(ncn2C)n(C)c1=O` [Caffeine, reference compound], in experiment [1] (10 μM), the PPAR-α activity amounted to 1.3. This compound also displayed a PPAR-α activity in experiment [1] (100 μM) of 1.6. The “TNF-α biosynthesis (%)” value in experiment [2] was determined as 39%. In experiment [3], the “Type I collagenase biosynthesis (%), UV-A + TNF-α treated group” value worked out at 91% and the “Type I collagenase biosynthesis (%), UV-A irradiated group” value was found to be 58%.

Consider `O=C(O)c1cc(O)c(O)c(O)c1` [Gallic acid], for which the PPAR-α activity in experiment [1] (10 μM) was determined as 1.3. In experiment [1] (100 μM), the PPAR-α activity is 1.7. The “TNF-α biosynthesis (%)” value in experiment [2] is recorded as 36%. Further, in experiment [3], the “Type I collagenase biosynthesis (%), UV-A + TNF-α treated group” value stood at 89% and the “Type I collagenase biosynthesis (%), UV-A irradiated group” value was determined as 52%.

For `Oc1cc(O)c2c(c1)O[C@@H](c1ccc(O)c(O)c1)[C@@H](O)C2` [(+) EC, (+)epicatechin], the PPAR-α activity is on record as 1.3 in experiment [1] (10 μM) and 1.2 in experiment [1] (100 μM).

In experiment [1] (10 μM), `O=C(O)[C@]1(O)C[C@@H](O)[C@@H](O)[C@H](O)C1` [Quinic acid] displayed a PPAR-α activity of 1.3. In experiment [1] (100 μM), this compound gave a PPAR-α activity of 1.7. For the same compound, in experiment [2], the “TNF-α biosynthesis (%)” value is given as 35%. For the same compound, in experiment [3], the “Type I collagenase biosynthesis (%), UV-A + TNF-α treated group” value is reported as 98% and the “Type I collagenase biosynthesis (%), UV-A irradiated group” value was found to be 75%.

On to `O=c1c(O)c(-c2ccc(O)c(O)c2)oc2cc(O)cc(O)c12` [Quercetin, quercetin], for which the PPAR-α activity in experiment [1] (10 μM) is listed as 1.7. Moreover, the PPAR-α activity in experiment [1] (100 μM) was 2.3. For the same compound, the “TNF-α biosynthesis (%)” value in experiment [2] is given as 27%. In addition, in experiment [3], the “Type I collagenase biosynthesis (%), UV-A + TNF-α treated group” value was 91% and the “Type I collagenase biosynthesis (%), UV-A irradiated group” value is 35%.

Take `Cn1cnc2c1c(=O)[nH]c(=O)n2C` [Theobromine]: the PPAR-α activity in experiment [1] (10 μM) was 2.2; in experiment [1] (100 μM) it was 4.5. For the same compound, in experiment [2], the “TNF-α biosynthesis (%)” value is given as 25%. The “Type I collagenase biosynthesis (%), UV-A + TNF-α treated group” value in experiment [3] amounted to 90%. Besides, the “Type I collagenase biosynthesis (%), UV-A irradiated group” value in experiment [3] amounted to 32%.

Turning to `O=c1c(O)c(-c2ccc(O)cc2)oc2cc(O)cc(O)c12` [Kaempferol, kaempferol], the PPAR-α activity came out at 1.7 in experiment [1] (10 μM) and 1.4 in experiment [1] (100 μM). In addition, the “TNF-α biosynthesis (%)” value in experiment [2] was 41%. In addition, the “Type I collagenase biosynthesis (%), UV-A + TNF-α treated group” value in experiment [3] was 94%. In addition, the “Type I collagenase biosynthesis (%), UV-A irradiated group” value in experiment [3] is listed as 48%.

With `Oc1cc(O)c2c(c1)O[C@H](c1cc(O)c(O)c(O)c1)[C@H](O)C2` [(−) EGC, epigallocatechin], the values for the PPAR-α activity in experiment [1] (10 μM) and in experiment [1] (100 μM) were 1.3 and 1.0, respectively.

`Oc1cc(O)c2c(c1)O[C@H](c1ccc(O)c(O)c1)[C@H](O)C2` [(−) EC, (−)epicatechin]: the PPAR-α activity in experiment [1] (10 μM) and in experiment [1] (100 μM) was 1.2 each time.

With `CCNC(=O)CC[C@H](N)C(=O)O` [Theanine], the Collagen biosynthesis worked out at 132.1 in the experiment with pro-collagen (10 μM) and 167.5 with pro-collagen (100 μM). Further, the PPAR-α activity in experiment [1] (10 μM) came to 1.8; in experiment [1] (100 μM) it was 1.9. Besides, the “TNF-α biosynthesis (%)” value in experiment [2] was 30%. The “Type I collagenase biosynthesis (%), UV-A + TNF-α treated group” value in experiment [3] amounted to 95%. The “Type I collagenase biosynthesis (%), UV-A irradiated group” value in experiment [3] is 60%.

Regarding `Cn1c(=O)c2[nH]cnc2n(C)c1=O` [Theophylline, reference compound], the PPAR-α activity in experiment [1] (10 μM) came to 1.4. The compound also gave a PPAR-α activity in experiment [1] (100 μM) of 1.7. Further, the “TNF-α biosynthesis (%)” value in experiment [2] amounted to 36%. Further, in experiment [3], the “Type I collagenase biosynthesis (%), UV-A + TNF-α treated group” value amounted to 92% and the “Type I collagenase biosynthesis (%), UV-A irradiated group” value turned out to be 40%.

For the compound `Oc1cc(O)c2c(c1)O[C@H](c1cc(O)c(O)c(O)c1)[C@@H](O)C2` [(−) GC, gallocatechin], the results for the PPAR-α activity in experiment [1] (10 μM) and in experiment [1] (100 μM) were 1.1 and 1.0, respectively.
